{
  "source": "paper PMC12732581",
  "about": "“Molecular and System-Level Characterization of MMP12 Suppression in Lung Cancer: A Combined Bioinformatics and Molecular Approach” (International Journal of Molecular Sciences, 2025)",
  "key": {"recombinant human MMP12": {"target": "T1, recombinant human MMP12 (Homo sapiens, UniProt P39900)", "T1 construct": "purchased Abcam", "T1 sequence (P39900 106-470)": "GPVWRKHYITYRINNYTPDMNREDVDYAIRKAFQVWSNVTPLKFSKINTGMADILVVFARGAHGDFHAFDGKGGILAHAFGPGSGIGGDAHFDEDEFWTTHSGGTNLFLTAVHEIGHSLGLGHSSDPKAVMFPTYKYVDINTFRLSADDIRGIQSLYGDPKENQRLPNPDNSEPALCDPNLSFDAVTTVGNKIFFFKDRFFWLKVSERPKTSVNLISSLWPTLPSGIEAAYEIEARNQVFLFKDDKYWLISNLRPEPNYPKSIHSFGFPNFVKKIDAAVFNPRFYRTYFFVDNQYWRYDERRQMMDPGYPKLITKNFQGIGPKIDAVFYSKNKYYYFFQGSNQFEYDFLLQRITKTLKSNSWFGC", "experiment": "MMP12 colorimetric thiopeptide enzyme inhibition assay (Abcam)", "assay_type": "biochemical", "description": "The enzyme inhibition potential of synthesized p-chlorocinnamic acid derivatives against MMP12 was assessed using the Abcam colorimetric assay.\nThe inhibitory activity of the newly synthesized compounds against MMP12 was assessed using a previously established enzymatic assay protocol, as described in our earlier study. In brief, we conducted a colorimetric thiopeptide-based inhibition assay for MMP12 using recombinant human MMP12 and the reference inhibitor NNGH as a positive control. The IC50 values were calculated using GraphPad Prism version 9 (GraphPad Software, San Diego, CA, USA)."}, "A549 lung cancer cells": {"tested_on": "A549 lung cancer cells", "experiment": "MTT cell viability assay, A549", "assay_type": "cell-based, human", "description": "(§1) To evaluate the impact of MMP12 inhibitors on lung cancer cell lines, an MTT assay was performed on A549, H1299, and H661 cells exposed to varying concentrations of inhibitors over 48, 72, and 96 h.\n(§2) The lung cancer cell lines referenced as A549, H1299, and H661 were acquired from the American Type Culture Collection (ATCC, Manassas, VA, USA). Fibroblast cells of dermal origin were used as a model for normal human tissue, which were also purchased from ATCC. A549, H1299, and H661 cells were maintained in the RPMI culture medium, while fibroblast cells were maintained in the DMEM high glucose culture medium. Both RPMI and DMEM culture media were supplemented with 100 U/mL penicillin, 0.1 mg/mL streptomycin to prevent bacterial growth, 10% FBS to promote cell growth, and 2 mM L-glutamine as an energy source.\n(§3) The 3-(4,5-dimethylthiazol-2-yl)-2,5-diphenyltetrazolium bromide (MTT) assay was employed to evaluate cell proliferation as previously noted. All experiments were performed in triplicate wells and were repeated at least twice independently. The percentage of the relative cell viability of treated cells versus the untreated cells (negative controls) was calculated using the following formula in Equation (1) (cell viability calculation):(1) Cell viability%=optical density of treated cells/optical density of untreated cells×100"}, "H1299 lung cancer cells": {"tested_on": "H1299 lung cancer cells", "experiment": "MTT cell viability assay, H1299", "assay_type": "cell-based, human", "description": "as §1, §2, §3"}, "H661 lung cancer cells": {"tested_on": "H661 lung cancer cells", "experiment": "MTT cell viability assay, H661", "assay_type": "cell-based, human", "description": "as §1, §2, §3"}, "H1299 cells [1]": {"tested_on": "H1299 cells", "experiment": "Soft agar colony formation assay (anchorage-independent growth)", "assay_type": "cell-based, human", "conditions": "for Colony count / Colony average size (px): H1299 soft agar; for Colony count: untreated 920; for Colony average size (px): untreated 746758", "description": "Figures S12–S16 show a selection of images captured on day 15 at different magnifications: 4× and 20×.\nThe anchorage-independent colony formation assay was conducted using a previously described method with minor modifications. […] After 14 days of incubation, the colonies were imaged using the EVOS XL Core microscopeThermo Fisher Scientific, Waltham, MA, USA. and quantified."}, "CD44 mRNA in H1299 cells": {"tested_on": "CD44 mRNA in H1299 cells", "experiment": "qPCR gene expression, CD44", "assay_type": "cell-based, human", "conditions": "H1299, 0.1 IC50, 72 h", "description": "(§4) Quantitative real-time PCR (qPCR) was used to assess the impact of MMP12 inhibition in H1299 lung cancer cells.\n(§5) Quantitative real-time PCR (qPCR) was conducted as previously described. Lung cancer cell lines (A549, H1299, H661) were seeded at approximately 4 × 10^5 cells per T-25 flask and incubated for 24 h. […] Total RNA was extracted, reverse-transcribed into cDNA, and qPCR was performed using SYBR Green on an Applied Biosystems platform, Foster City, CA, USA. Gene expression was normalized to GAPDH, and the fold-change was calculated using the 2^−ΔΔCt method. The basal expression of MMP12 in untreated A549, H1299, and H661 cells was assessed using the 2^−ΔCt method. Primer sequences and annealing temperatures (Ta) are listed in Table S2 (Supplementary Materials)."}, "[2]": {"tested_on": "NFKBIA mRNA in H1299 cells", "experiment": "qPCR gene expression, NFKBIA", "assay_type": "cell-based, human", "conditions": "H1299, 0.1 IC50, 72 h", "description": "as §4, §5"}, "[3]": {"tested_on": "PSME3 mRNA in H1299 cells", "experiment": "qPCR gene expression, PSME3", "assay_type": "cell-based, human", "conditions": "H1299, 0.1 IC50, 72 h", "description": "as §4, §5"}, "[4]": {"tested_on": "SPARCL1 mRNA in H1299 cells", "experiment": "qPCR gene expression, SPARCL1", "assay_type": "cell-based, human", "conditions": "H1299, 0.1 IC50, 72 h", "description": "as §4, §5"}, "[5]": {"tested_on": "ADAM9 mRNA in H1299 cells", "experiment": "qPCR gene expression, ADAM9", "assay_type": "cell-based, human", "conditions": "H1299, 0.1 IC50, 72 h", "description": "as §4, §5"}, "[6]": {"tested_on": "CCL15 mRNA in H1299 cells", "experiment": "qPCR gene expression, CCL15", "assay_type": "cell-based, human", "conditions": "H1299, 0.1 IC50, 72 h", "description": "as §4, §5"}, "[7]": {"tested_on": "MMP12 protein in H1299 cells", "experiment": "Western blot of MMP12 protein expression", "assay_type": "cell-based, human", "conditions": "for Normalized MMP-12 (to GAPDH), Western blot: untreated H1299 0.9696", "description": "Western blotting was conducted to assess the protein expression of MMP12 in lung cancer cell lines (A549, H1299, and H661), following the protocol established earlier. In summary, cells were seeded and incubated for 24 h. […] Total protein lysates were prepared, separated by SDS-PAGE, and transferred to nitrocellulose membranes. These membranes were then probed with primary antibodies against MMP12 and GAPDH. The protein bands were visualized using an HRP substrate and analyzed for relative expression."}, "H1299 cells [8]": {"tested_on": "H1299 cells", "conditions": "human, 72 h", "method": "(§6) Apoptosis was assessed using Annexin-V/PI staining, following the method described earlier with minor modifications [84]. […] After the treatment, the cells were collected and stained with Annexin-V-FITC and propidium iodide. The stained cells were then analyzed using a BD FACSCanto II flow cytometer (Becton, Dickinson and Company (BD), Franklin Lakes, NJ, USA) and FACSDiva software (Becton, Dickinson and Company (BD), Franklin Lakes, NJ, USA)."}, "H1299 cells [9]": {"tested_on": "H1299 cells", "experiment": "Annexin V-FITC/PI apoptosis assay (flow cytometry)", "conditions": "H1299, double IC50, 72 h", "method": "as §6"}, "[10]": {"conditions": "highest listed concentration (IC50)"}, "[11]": {"conditions": "lowest listed concentration (¼ IC50)"}, "[12]": {"conditions": "middle listed concentration (½ IC50)"}, "[13]": {"conditions": "relative to untreated, GAPDH normalized"}},
  "note": "Several values for one entry are separate records, joined by “and”; a condition that tells them apart may be missing. Equal entries are not always repeated.",
  "data": [
    {"smiles": "O=C(/C=C/c1ccc(Cl)cc1)Nc1ccc(C(=O)c2ccccc2)cc1", "note": "[Compound C1]", "values": [
      {"measurement": "inhibition at 50 µM", "setting": "recombinant human MMP12", "result": 32.9, "unit": "%"},
      {"measurement": "IC50", "setting": "A549 lung cancer cells; A549, 72 h", "result": 118, "unit": "µM"},
      {"measurement": "IC50", "setting": "A549 lung cancer cells; Homo sapiens, A549, 48 h", "result": 198, "unit": "µM"},
      {"measurement": "IC50", "setting": "A549 lung cancer cells; Homo sapiens, A549, 72 h", "result": 119, "unit": "µM"},
      {"measurement": "IC50", "setting": "A549 lung cancer cells; Homo sapiens, A549, 96 h", "result": 82, "unit": "µM"},
      {"measurement": "IC50", "setting": "H1299 lung cancer cells; H1299, 72 h", "result": "91 µM and 91.7 µM"},
      {"measurement": "IC50", "setting": "H1299 lung cancer cells; Homo sapiens, NCI-H1299, 48 h, H1299, 48 h", "result": 359, "unit": "µM"},
      {"measurement": "IC50", "setting": "H1299 lung cancer cells; Homo sapiens, NCI-H1299, 72 h, H1299, 72 h", "result": 91.7, "unit": "µM"},
      {"measurement": "IC50", "setting": "H1299 lung cancer cells; Homo sapiens, NCI-H1299, 96 h, H1299, 96 h", "result": 99.7, "unit": "µM"},
      {"measurement": "IC50", "setting": "H661 lung cancer cells; H661, 72 h", "result": 34, "unit": "µM"},
      {"measurement": "IC50", "setting": "H661 lung cancer cells; Homo sapiens, NCI-H661, 48 h, H661, 48 h", "result": 60.4, "unit": "µM"},
      {"measurement": "IC50", "setting": "H661 lung cancer cells; Homo sapiens, NCI-H661, 72 h, H661, 72 h", "result": 33.9, "unit": "µM"},
      {"measurement": "IC50", "setting": "H661 lung cancer cells; Homo sapiens, NCI-H661, 96 h, H661, 96 h", "result": 129, "unit": "µM"},
      {"measurement": "formation of cell colonies (number and size), in words", "setting": "H1299 cells [1]; H1299, IC50, ½ IC50 or ¼ IC50, 72 h, vs untreated control", "result": "inhibited the formation of cell colonies"},
      {"measurement": "Colony count", "setting": "H1299 cells [1]; [10]", "result": 292},
      {"measurement": "Colony average size (px)", "setting": "H1299 cells [1]; [10]", "result": 51655, "unit": "px"},
      {"measurement": "Colony count", "setting": "H1299 cells [1]; [11]", "result": 520},
      {"measurement": "Colony average size (px)", "setting": "H1299 cells [1]; [11]", "result": 262500, "unit": "px"},
      {"measurement": "Colony count", "setting": "H1299 cells [1]; [12]", "result": 408},
      {"measurement": "Colony average size (px)", "setting": "H1299 cells [1]; [12]", "result": 130041, "unit": "px"},
      {"measurement": "CD44 Fold Change (2^−ΔΔCt)", "setting": "CD44 mRNA in H1299 cells; [13]", "result": 0.48},
      {"measurement": "CD44 % Change", "setting": "CD44 mRNA in H1299 cells; vs untreated control", "result": "−52", "unit": "%"},
      {"measurement": "NFKBIA Direction", "setting": "[2]", "result": "Up"},
      {"measurement": "NFKBIA Fold Change (2^−ΔΔCt)", "setting": "[2]; [13]", "result": 24.33},
      {"measurement": "NFKBIA % Change", "setting": "[2]; vs untreated control", "result": "+2333%"},
      {"measurement": "PSME3 Fold Change (2^−ΔΔCt)", "setting": "[3]; [13]", "result": 0.54},
      {"measurement": "PSME3 % Change", "setting": "[3]; vs untreated control", "result": "−46", "unit": "%"},
      {"measurement": "SPARCL1 Fold Change (2^−ΔΔCt)", "setting": "[4]; [13]", "result": 0.49},
      {"measurement": "SPARCL1 % Change", "setting": "[4]; vs untreated control", "result": "−51", "unit": "%"},
      {"measurement": "ADAM9 Direction", "setting": "[5]", "result": "Up"},
      {"measurement": "ADAM9 Fold Change (2^−ΔΔCt)", "setting": "[5]; [13]", "result": 123.60},
      {"measurement": "ADAM9 % Change", "setting": "[5]; vs untreated control", "result": "+12,260%"},
      {"measurement": "CCL15 Fold Change (2^−ΔΔCt)", "setting": "[6]; [13]", "result": 0.03},
      {"measurement": "CCL15 % Change", "setting": "[6]; vs untreated control", "result": "−97", "unit": "%"},
      {"measurement": "MMP12 protein suppression (Western blot), in words", "setting": "[7]; H1299, 0.1, ¼ and ½ IC50", "result": "less effective"},
      {"measurement": "Normalized MMP-12 (to GAPDH), Western blot", "setting": "[7]; H1299, 0.1 IC50, 72 h", "result": 0.6296},
      {"measurement": "Normalized MMP-12 (to GAPDH), Western blot", "setting": "[7]; H1299, ¼ IC50, 72 h", "result": 0.3747},
      {"measurement": "Normalized MMP-12 (to GAPDH), Western blot", "setting": "[7]; H1299, ½ IC50, 72 h", "result": 0.1966},
      {"measurement": "Viable (%) (Annexin−/PI−, Q1-LL)", "setting": "H1299 cells [8]", "result": 78.6, "unit": "%"},
      {"measurement": "Necrosis (%) (Annexin−/PI+, Q1-UL)", "setting": "H1299 cells [9]; control 0.7", "result": 1.9, "unit": "%"},
      {"measurement": "Late Apoptosis (%) (Annexin+/PI+, Q1-UR)", "setting": "H1299 cells [9]; control 2.6", "result": 2.9, "unit": "%"},
      {"measurement": "Early Apoptosis (%) (Annexin+/PI−, Q1-LR)", "setting": "H1299 cells [9]; control 8.7", "result": 16.6, "unit": "%"},
      {"measurement": "Total Apoptosis (%)", "setting": "H1299 cells [9]; control 11.3", "result": 19.5, "unit": "%"}
    ]}
  ]
}
